Experimental data as given in patent US9486506B2 (Novo Nordisk A/S, priority 2011, dated 2016).
Numbered stars: 1 amine (or outer) side, 2 acyl side, 3 side chain; on linkers, the order of the positions; unused ones are H or OH. Side chains are listed from the residue outwards. Peptide text beside a SMILES is read from it. * marks the point of attachment. C18 diacid = O=C(O)CCCCCCCCCCCCCCCCC(=O)*; C16 diacid = O=C(O)CCCCCCCCCCCCCCC(=O)*; γGlu = O=C(O)[C@H](CCC(=O)[*:2])N[*:1]; AEEA = NCCOCCOCC(=O)O

Target: T1, glucagon receptor (Homo sapiens, UniProt P47871)
T1 construct: expressed in transfected cells
T1 sequence (P47871 26-477): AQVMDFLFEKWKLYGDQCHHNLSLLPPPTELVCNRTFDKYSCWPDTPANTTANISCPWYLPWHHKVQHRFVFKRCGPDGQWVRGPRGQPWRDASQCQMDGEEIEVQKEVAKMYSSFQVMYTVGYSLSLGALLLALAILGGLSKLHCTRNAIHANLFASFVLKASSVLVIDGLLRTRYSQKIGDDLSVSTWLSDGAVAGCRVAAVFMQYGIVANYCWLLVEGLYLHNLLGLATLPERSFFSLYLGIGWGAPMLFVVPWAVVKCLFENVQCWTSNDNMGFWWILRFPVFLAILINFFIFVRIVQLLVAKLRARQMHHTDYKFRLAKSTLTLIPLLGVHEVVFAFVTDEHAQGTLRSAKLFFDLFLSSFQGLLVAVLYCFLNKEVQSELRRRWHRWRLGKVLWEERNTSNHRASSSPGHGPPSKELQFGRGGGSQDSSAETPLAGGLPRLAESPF
Test: Assay (I) Glucagon activity (cAMP biosensor, FLIPR)
Type: cell-based

Row | Compound | EC50 [nM]
1 | CC(C)C[C@H](NC(=O)[C@H](CC(=O)O)NC(=O)[C@H](CC(C)C)NC(=O)[C@H](Cc1ccc(O)cc1)NC(=O)[C@H](CCCNC(=N)N)NC(=O)[C@H](CO)NC(=O)[C@H](Cc1ccc(O)cc1)NC(=O)[C@H](CC(=O)O)NC(=O)[C@H](CO)NC(=O)[C@@H](NC(=O)[C@H](Cc1ccccc1)NC(=O)[C@@H](NC(=O)CNC(=O)[C@H](CCC(N)=O)NC(=O)[C@H](CO)NC(=O)[C@@H](N)Cc1c[nH]cn1)[C@@H](C)O)[C@@H](C)O)C(=O)N[C@@H](CCCNC(=N)N)C(=O)N[C@@H](CCCNC(=N)N)C(=O)N[C@@H](C)C(=O)N[C@@H](CCC(N)=O)C(=O)N[C@@H](CC(=O)O)C(=O)N[C@@H](Cc1ccccc1)C(=O)N[C@H](C(=O)N[C@@H](CCCCNC(=O)CC[C@H](NC(=O)CC[C@H](NC(=O)COCCOCCNC(=O)COCCOCCNC(=O)CC[C@H](NC(=O)CCCCCCCCCCCCCCCCC(=O)O)C(=O)O)C(=O)O)C(=O)O)C(=O)N[C@@H](Cc1c[nH]c2ccccc12)C(=O)N[C@@H](CC(C)C)C(=O)N[C@@H](CCC(=O)O)C(=O)N[C@@H](CO)C(=O)N[C@H](C(=O)O)[C@@H](C)O)C(C)C [Example 47, N^ε24-[(4S)-4-carboxy-4-[[(4S)-4-carboxy-4-[[2-[2-[2-[[2-[2-[2-[[(4S)-4-carboxy-4-(17-carboxyheptadecanoylamino)butanoyl]amino]ethoxy]ethoxy]acetyl]amino]ethoxy]ethoxy]acetyl]amino]butanoyl]amino]butanoyl]-[Arg12,Leu16,Lys24,Glu27,Ser28]-Glucagon] (H-HSQGTFTSDYSRYLDLRRAQDFVK([γGlu-γGlu-AEEA-AEEA-γGlu-C18 diacid])WLEST-OH) | 0.136
2 | CC(C)C[C@H](NC(=O)[C@H](Cc1ccc(O)cc1)NC(=O)[C@H](CCCCN)NC(=O)[C@H](CO)NC(=O)[C@H](Cc1ccc(O)cc1)NC(=O)[C@H](CC(=O)O)NC(=O)[C@H](CO)NC(=O)[C@@H](NC(=O)[C@H](Cc1ccccc1)NC(=O)[C@@H](NC(=O)CNC(=O)[C@H](Cc1c[nH]cn1)NC(=O)[C@H](CO)NC(=O)[C@@H](N)Cc1c[nH]cn1)[C@@H](C)O)[C@@H](C)O)C(=O)N[C@@H](CC(=O)O)C(=O)N[C@@H](CO)C(=O)N[C@@H](CCCCN)C(=O)N[C@@H](CCCNC(=N)N)C(=O)N[C@@H](C)C(=O)N[C@@H](CCC(N)=O)C(=O)N[C@@H](CCC(=O)O)C(=O)N[C@@H](Cc1ccccc1)C(=O)N[C@H](C(=O)N[C@@H](CCCCNC(=O)CC[C@H](NC(=O)CC[C@H](NC(=O)COCCOCCNC(=O)CC[C@H](NC(=O)CCCCCCCCCCCCCCCCC(=O)O)C(=O)O)C(=O)O)C(=O)O)C(=O)N[C@@H](Cc1c[nH]c2ccccc12)C(=O)N[C@@H](CC(C)C)C(=O)N[C@@H](CC(C)C)C(=O)N[C@@H](CO)C(=O)N[C@H](C(=O)O)[C@@H](C)O)C(C)C [Example 6, N^ε24-[(4S)-4-carboxy-4-[[(4S)-4-carboxy-4-[[2-[2-[2-[[(4S)-4-carboxy-4-(17-carboxyheptadecanoylamino)butanoyl]amino]ethoxy]ethoxy]acetyl]amino]butanoyl]amino]butanoyl]-[His^3,Lys^17,Glu^21,Lys^24,Leu^27,Ser^28]-Glucagon] (H-HSHGTFTSDYSKYLDSKRAQEFVK([γGlu-γGlu-AEEA-γGlu-C18 diacid])WLLST-OH) | 0.077
3 | CC(C)C[C@H](NC(=O)[C@H](Cc1ccc(O)cc1)NC(=O)[C@H](CCCNC(=N)N)NC(=O)[C@H](CO)NC(=O)[C@H](Cc1ccc(O)cc1)NC(=O)[C@H](CC(=O)O)NC(=O)[C@H](CO)NC(=O)[C@@H](NC(=O)[C@H](Cc1ccccc1)NC(=O)[C@@H](NC(=O)CNC(=O)[C@H](CCC(N)=O)NC(=O)[C@H](CO)NC(=O)[C@@H](N)Cc1c[nH]cn1)[C@@H](C)O)[C@@H](C)O)C(=O)N[C@@H](CC(=O)O)C(=O)N[C@@H](C)C(=O)N[C@@H](CCCNC(=N)N)C(=O)N[C@@H](CCCNC(=N)N)C(=O)N[C@@H](C)C(=O)N[C@@H](CCC(N)=O)C(=O)N[C@@H](CC(=O)O)C(=O)N[C@@H](Cc1ccccc1)C(=O)N[C@H](C(=O)N[C@@H](CCCCNC(=O)CC[C@H](NC(=O)CC[C@H](NC(=O)CC[C@H](NC(=O)CC[C@H](NC(=O)CCCCCCCCCCCCCCC(=O)O)C(=O)O)C(=O)O)C(=O)O)C(=O)O)C(=O)N[C@@H](Cc1c[nH]c2ccccc12)C(=O)N[C@@H](CC(C)C)C(=O)N[C@@H](CC(C)C)C(=O)N[C@@H](CO)C(=O)N[C@H](C(=O)O)[C@@H](C)O)C(C)C [Example 73, N^ε24-[(4S)-4-carboxy-4-[[(4S)-4-carboxy-4-[[(4S)-4-carboxy-4-[[(4S)-4-carboxy-4-(15-carboxypentadecanoylamino)butanoyl]amino]butanoyl]amino]butanoyl]amino]butanoyl]-[Arg12,Ala16,Lys24,Leu27,Ser28]-Glucagon] (H-HSQGTFTSDYSRYLDARRAQDFVK([γGlu-γGlu-γGlu-γGlu-C16 diacid])WLLST-OH) | 0.106
4 | CC[C@H](C)[C@H](NC(=O)[C@H](CC(=O)O)NC(=O)[C@H](CC(C)C)NC(=O)[C@H](Cc1ccc(O)cc1)NC(=O)[C@H](CCCCN)NC(=O)[C@H](CO)NC(=O)[C@H](Cc1ccc(O)cc1)NC(=O)[C@H](CC(=O)O)NC(=O)[C@H](CO)NC(=O)[C@@H](NC(=O)[C@H](Cc1ccccc1)NC(=O)[C@@H](NC(=O)CNC(=O)[C@H](CCC(N)=O)NC(=O)[C@H](CO)NC(=O)[C@@H](N)Cc1c[nH]cn1)[C@@H](C)O)[C@@H](C)O)C(=O)N[C@@H](CCCNC(=N)N)C(=O)N[C@@H](CCCNC(=N)N)C(=O)N[C@@H](C)C(=O)N[C@@H](CCC(N)=O)C(=O)N[C@@H](CC(=O)O)C(=O)N[C@@H](Cc1ccccc1)C(=O)N[C@H](C(=O)N[C@@H](CCCCNC(=O)CC[C@H](NC(=O)CC[C@H](NC(=O)COCCOCCNC(=O)COCCOCCNC(=O)CC[C@H](NC(=O)CCCCCCCCCCCCCCCCC(=O)O)C(=O)O)C(=O)O)C(=O)O)C(=O)N[C@@H](Cc1c[nH]c2ccccc12)C(=O)N[C@@H](CC(C)C)C(=O)N[C@@H](CC(C)C)C(=O)N[C@@H](CC(N)=O)C(=O)N[C@H](C(=O)O)[C@@H](C)O)C(C)C [Example 8, N^ε24-[(4S)-4-carboxy-4-[[(4S)-4-carboxy-4-[[2-[2-[2-[[2-[2-[2-[[(4S)-4-carboxy-4-(17-carboxyheptadecanoylamino)butanoyl]amino]ethoxy]ethoxy]acetyl]amino]ethoxy]ethoxy]acetyl]amino]butanoyl]amino]butanoyl]-[Ile^16,Lys^24,Leu^27]-Glucagon] | 0.081
5 | CC(C)C[C@H](NC(=O)[C@H](Cc1ccc(O)cc1)NC(=O)[C@H](CCCCN)NC(=O)[C@H](CO)NC(=O)[C@H](Cc1ccc(O)cc1)NC(=O)[C@H](CC(=O)O)NC(=O)[C@H](CO)NC(=O)[C@@H](NC(=O)[C@H](Cc1ccccc1)NC(=O)[C@@H](NC(=O)CNC(=O)[C@H](Cc1c[nH]cn1)NC(=O)[C@H](CO)NC(=O)[C@@H](N)Cc1c[nH]cn1)[C@@H](C)O)[C@@H](C)O)C(=O)N[C@@H](CC(=O)O)C(=O)N[C@@H](CO)C(=O)N[C@@H](CCCNC(=N)N)C(=O)N[C@@H](CCCNC(=N)N)C(=O)N[C@@H](C)C(=O)N[C@@H](CCC(N)=O)C(=O)N[C@@H](CC(=O)O)C(=O)N[C@@H](Cc1ccccc1)C(=O)N[C@H](C(=O)N[C@@H](CCCCNC(=O)CC[C@H](NC(=O)CC[C@H](NC(=O)COCCOCCNC(=O)COCCOCCNC(=O)CC[C@H](NC(=O)CCCCCCCCCCCCCCCCC(=O)O)C(=O)O)C(=O)O)C(=O)O)C(=O)N[C@@H](Cc1c[nH]c2ccccc12)C(=O)N[C@@H](CC(C)C)C(=O)N[C@@H](CC(C)C)C(=O)N[C@@H](CO)C(=O)N[C@H](C(=O)O)[C@@H](C)O)C(C)C [Example 2, N^ε24-[(4S)-4-carboxy-4-[[(4S)-4-carboxy-4-[[2-[2-[2-[[2-[2-[2-[[(4S)-4-carboxy-4-(17-carboxyheptadecanoylamino)butanoyl]amino]ethoxy]ethoxy]acetyl]amino]ethoxy]ethoxy]acetyl]amino]butanoyl]amino]butanoyl]-[His^3,Lys^24,Leu^27,Ser^28]-Glucagon] | 0.129
6 | CC(C)C[C@H](NC(=O)[C@H](Cc1c[nH]c2ccccc12)NC(=O)[C@H](CCCCNC(=O)CC[C@H](NC(=O)CC[C@H](NC(=O)COCCOCCNC(=O)COCCOCCNC(=O)CC[C@H](NC(=O)CCCCCCCCCCCCCCCCC(=O)O)C(=O)O)C(=O)O)C(=O)O)NC(=O)[C@@H](NC(=O)[C@H](Cc1ccccc1)NC(=O)[C@H](CC(=O)O)NC(=O)[C@H](CCC(N)=O)NC(=O)[C@H](C)NC(=O)[C@H](CCCNC(=N)N)NC(=O)[C@H](CCCNC(=N)N)NC(=O)[C@@H](NC(=O)[C@H](CC(=O)O)NC(=O)[C@H](CC(C)C)NC(=O)[C@H](Cc1ccc(O)cc1)NC(=O)[C@H](CCCCN)NC(=O)[C@H](CO)NC(=O)[C@H](Cc1ccc(O)cc1)NC(=O)[C@H](CC(=O)O)NC(=O)[C@H](CO)NC(=O)[C@@H](NC(=O)[C@H](Cc1ccccc1)NC(=O)[C@@H](NC(=O)CNC(=O)[C@H](CCC(N)=O)NC(=O)[C@H](CO)NC(=O)[C@@H](N)Cc1c[nH]cn1)[C@@H](C)O)[C@@H](C)O)C(C)C)C(C)C)C(=O)N[C@@H](CC(C)C)C(=O)N[C@@H](CO)C(=O)N[C@H](C(=O)O)[C@@H](C)O [Example 30, N^ε24-[(4S)-4-carboxy-4-[[(4S)-4-carboxy-4-[[2-[2-[2-[[2-[2-[2-[[(4S)-4-carboxy-4-(17-carboxyheptadecanoylamino)butanoyl]amino]ethoxy]ethoxy]acetyl]amino]ethoxy]ethoxy]acetyl]amino]butanoyl]amino]butanoyl]-[Val16,Lys24,Leu27,Ser28]-Glucagon] | 0.307
